# Source: PubChem BioAssay (NCI)
#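 Growth conditions: 96-well plates. Treatment: test compound, 48 hours, 5 concentrations. Analysis: linear interpolation between bracketing concentrations; unreached endpoints set to highest concentration. GI50: concentration for 50% inhibition of growth. TGI: concentration producing complete growth inhibition.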
# Experiments:
# Test in all cases: DTP human tumour cell line panel, 48 h
# HT29 colon = system: HT29 colon
# SNB-19 CNS = system: SNB-19 CNS
# A498 renal = system: A498 renal
# SK-MEL-28 melanoma = system: SK-MEL-28 melanoma
# M14 melanoma = system: M14 melanoma
# NCI-H522 lung = system: NCI-H522 lung
# XF 498 CNS = system: XF 498 CNS
# ACHN renal = system: ACHN renal
# MDA-N = system: MDA-N
# PC-3 prostate = system: PC-3 prostate
SMILES,GI50 (HT29 colon) [µM],TGI (HT29 colon) [µM],GI50 (SNB-19 CNS) [µM],TGI (SNB-19 CNS) [µM],GI50 (A498 renal) [µM],TGI (A498 renal) [µM],GI50 (SK-MEL-28 melanoma) [µM],TGI (SK-MEL-28 melanoma) [µM],GI50 (M14 melanoma) [µM],TGI (M14 melanoma) [µM],GI50 (NCI-H522 lung) [µM],TGI (NCI-H522 lung) [µM],GI50 (XF 498 CNS) [µM],TGI (XF 498 CNS) [µM],GI50 (ACHN renal) [µM],TGI (ACHN renal) [µM],TGI (MDA-N) [µM],TGI (PC-3 prostate) [µM],GI50 (MDA-N) [µM],GI50 (PC-3 prostate) [µM]
CC(=O)[CH-]C(C)=O.CC(=O)[CH-]C(C)=O.[CH2-]CCC.[CH2-]CCC.[Sn+4],1.28,2.59,0.663,1.97,0.259,0.73,0.436,1.67,0.608,1.86,0.0586,0.122,0.262,1.07,0.487,1.66,–,–,–,–
c1cc(N(CCn2cccn2)CCn2cccn2)cc(N(CCn2cccn2)CCn2cccn2)c1,–,–,–,> 100,–,> 100,–,> 100,–,> 100,–,> 100,–,> 100,–,> 100,–,–,–,–
CCC[CH2][Sn]1([CH2]CCC)[O]CC(Cc2ccccc2)[O]1 (stereo not drawn),4.43,14.5,3.45,11.7,2.77,8.22,1.58,5.24,2.3,5.51,0.259,0.93,1.74,3.23,2.22,4.39,–,–,–,–
COc1ccc2c(c1)N1CCc3cc(OC)c(OC)cc3C1C2 (stereo not drawn),–,> 100,–,> 100,–,> 100,–,> 100,–,–,–,> 100,–,> 100,–,> 100,–,–,–,–
C=C1C(=O)O[C@@H]2C[C@@H](C)[C@@H]3C=CC(=O)[C@@]3(C)[C@@H](OC(=O)CC(=O)O[C@H]3[C@@H]4C(=C)C(=O)O[C@@H]4C[C@@H](C)[C@@H]4C=CC(=O)[C@]43C)[C@H]12,–,0.223,–,1.73,–,0.467,–,0.11,–,0.0845,–,–,–,0.05,–,0.189,10.2,0.436,–,–
CN(C)CC(C)(C)C(=O)/C=C/c1ccc(/C=C/C(=O)C(C)(C)CN(C)C)cc1,–,1.77,–,4.75,–,3.46,–,3.5,–,3.21,–,0.292,–,2.55,–,2.84,–,–,–,–
COc1ccc(-c2cc(=O)c3ccc(C)nc3[nH]2)cc1,–,> 100,–,> 100,–,> 100,–,> 100,–,> 100,–,> 100,–,–,–,> 100,> 100,> 100,55.2,> 100
O=C(O)CCCCCCC[C@H]1S[C@H]1CCCCCCO,–,> 100,–,> 100,–,–,–,> 100,–,> 100,–,–,–,> 100,–,–,–,–,–,–
COc1ccc(S(=O)(=O)Nc2ccccc2C(=O)O)cc1,–,> 100,–,> 100,–,> 100,–,> 100,–,> 100,–,> 100,–,> 100,–,> 100,–,–,–,–
CC(C(=O)c1ccccc1)C(c1ccccc1)N1CCOCC1 (stereo not drawn),–,> 100,–,> 100,–,> 100,–,> 100,–,> 100,–,> 100,–,–,–,> 100,> 100,> 100,–,–
C#Cc1cccc(N2C(=O)CCC2=O)c1,–,34.2,–,48,–,29.5,–,32.3,–,11.7,–,11.9,–,29,–,30.6,28.7,28.6,–,–
C=C(COC(C)=O)CC(OC(C)=O)c1ccccc1 (stereo not drawn),–,> 100,–,> 100,–,> 100,–,> 100,–,> 100,–,> 100,–,> 100,–,> 100,–,–,–,–
CC1CCC2(CC1)NN=c1s/c(=C\c3ccc(O)cc3)c(=O)n1N2 (stereo not drawn),–,> 100,–,> 100,–,–,–,> 100,–,> 100,–,> 100,–,> 100,–,–,–,–,–,–
COc1ccc(OC)c(/C(C)=N/NC(N)=S)c1,–,> 100,–,–,–,> 100,–,> 100,–,> 100,–,–,–,> 100,–,> 100,–,–,–,–
Cc1cc(=O)oc2cc(OC(=O)N(C)C)c(Cl)cc12,–,> 100,–,> 100,–,> 100,–,> 100,–,> 100,–,> 100,–,–,–,> 100,> 100,> 100,–,–
CC(C)=CCc1c(OC(=O)c2c(C)cc(O)cc2O)cc(CO)c(CO)c1O,–,42.6,–,21.2,–,35.1,–,46.7,–,44.7,–,39.2,–,–,–,37.2,34.8,36.8,–,–
O=C1c2ccccc2C(Br)(Br)c2ccccc21,–,> 100,–,> 31.6,–,–,–,> 31.6,–,> 31.6,–,> 31.6,–,97.8,–,> 31.6,–,–,–,–
CC(=O)O[C@H]1CC[C@@]2(C)C(=CC[C@H]3[C@@H]4CC[C@H](c5cc(C(F)(F)F)n(C(C)=O)n5)[C@@]4(C)CC[C@@H]32)C1,–,17.4,–,24,–,22.5,–,28.9,–,22.1,–,> 38.5,–,–,–,20.2,23.6,16,–,–
Cc1cc2c(ccc3c(C)cc(=O)oc32)o1,–,> 100,–,> 100,–,–,–,> 100,–,> 100,–,> 100,–,> 100,–,> 100,–,–,–,–
Oc1[nH]c2ccccc2c1N=Nc1ccccn1,–,55.5,–,> 100,–,70.6,–,> 100,–,> 100,–,78.8,–,–,–,23,> 100,> 100,–,–
COc1ccc(Nc2nc3ccc(C(F)(F)F)cc3nc2-c2ccccc2)cc1OC,–,22.6,–,–,–,> 100,–,> 100,–,> 100,–,75.3,–,85,–,> 100,–,–,–,–
